Measurements taken from patent publication US7728012B2, “Carboxamide compounds and their use as calpain inhibitors” (Abbott GmbH & Co. KG, priority 2006, dated 2010).

Legend:
Format in all cases: biochemical
[1] = target: T1, cathepsin K activated from recombinant human procathepsin K (Homo sapiens, UniProt P43235); assay: Cathepsin K kinetic fluorescence enzyme inhibition assay; details: selectivity ratio versus calpain I
T1 construct: purchased Calbiochem 342001; host or cells: E. coli
T1 sequence (P43235 115-329): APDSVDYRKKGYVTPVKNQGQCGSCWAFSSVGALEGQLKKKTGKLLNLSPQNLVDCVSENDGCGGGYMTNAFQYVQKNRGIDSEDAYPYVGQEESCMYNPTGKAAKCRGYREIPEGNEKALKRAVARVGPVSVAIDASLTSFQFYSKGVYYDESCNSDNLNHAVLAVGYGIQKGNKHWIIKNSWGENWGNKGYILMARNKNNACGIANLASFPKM
Description: (§1) The following solutions and buffers were employed: • HBS (for 40 ml): 800 μl M HEPES; 2.16 ml 100 mM KCl; 4.8 ml 1M NaCl; 3.59 ml 5% glucose; 60 μl μM MgSO4; 400 μl 100 mM Na pyruvate, 28.19 ml water; pH 7.2-7.5. • lysis buffer (for 20 ml): 400 μl M Tris pH 8.2; 2.74 ml 1M NaCl; 520 μl 0.5M EDTA; 2 ml 10% triton X-100; 0.8 ml (=1:25) CompletePlus (1 tablet/2 ml H2O); 200 μl 100 mM Pefabloc; 13.34 ml water, pH 8.2. • TBST (10×) (for 1 l): 100 mM Tris (12.1 g); 1.5M NaCl (87 g); 1% Tween 20 (10 g), adjusted to pH 8. I Enzyme Inhibition In Vitro: • Testing for blockade of the corresponding enzymic activities was carried out by means of kinetic fluorescence assays (excitation 390 nm, emission 460 nm). • Apparent Ki values were calculated from the experimentally determined IC50 values by the Cheng-Prussoff relation assuming a reversible competitive enzyme inhibition. The Km values of the substrates used under the assay conditions indicated above were: 90 μM (Z-Phe-Arg-AMC, cathepsin B), 10 μM (Z-Gly-Pro-Arg-AMC, cathepsin K), 2 μM (Z-Phe-Arg-AMC, cathepsin L), and 30 μM (Z-Val-Val-Arg-AMC, cathepsin S). • The indicated Ki values are averages of the inhibition constants calculated on the basis of 2 to 4 independent dose-effect plots.
(§2) The following assays were used: • 1. Calpain I: • 20 nM calpain-I—isolated from human erythrocytes (Calbiochem #208713), 100 μM Suc-Leu-Tyr-AMC (Bachem #1-1355) as substrate in buffer with 62 mM imidazole, 0.3 mM CaCl2, 0.10% CHAPS, 0.05% BSA, 1 mM DTT at pH 7.3 and room temperature. • 2. Cathepsin B: • 0.25 nM cathepsin B—isolated from human liver (Calbiochem #219362), 100 μM Z-Phe-Arg-AMC (Bachem #I-1160) as substrate 50 mM MES, 2 mM EDTA, 0.05% Brij 35, 2.5 mM L-cysteine, pH 6.0, room temperature. • 3. Cathepsin K: • 3 nM cathepsin K—activated from recombinant human procathepsin K from E. coli (Calbiochem #342001), 10 μM Z-Gly-Pro-Arg-AMC (Biomol #P-142) as substrate in 50 mM MES, 2 mM EDTA, 0.05% Brij 35, 2.5 mM L-cysteine, pH 6.0, room temperature. • 4. Cathepsin L: • 1 nM cathepsin L—isolated from human liver (Calbiochem #219402), 2 μM Z-Phe-Arg-AMC (Bachem #1-1160) as substrate in 50 mM MES, 2 mM EDTA, 0.05% Brij 35, 2.5 mM L-cysteine, pH 6.0, room temperature. • 5. Cathepsin S: • 0.5 nM recombinant human cathepsin S from E. coli (Calbiochem #219343), 20 μM Z-Val-Val-Arg-AMC (Bachem #1-1540) as substrate in 50 mM MES, 2 mM EDTA, 0.05% Brij 35, 2.5 mM L-cysteine, pH 6.0, room temperature. • The results of the in vitro determination are indicated in Table 1. The following abbreviations are used in Table 1: • The “Calpain activity” column, ++ stands for a calpain Ki (Ki(calpain)) of ≦40 nM and + means: 40 nM<Ki(Calpain)≦100 nM. • The “Sel. cat. B” column indicates the Ki(cathepsin B)/Ki(calpain) ratio. In this connection, ++ means a Ki(cathepsin B)/Ki(calpain) ratio of ≧30 and + means 10≦Ki(cathepsin B)/Ki(calpain)<30. • The “Sel. cat. K” column indicates the Ki(cathepsin K)/Ki(calpain) ratio. In this connection, ++ means a Ki(cathepsin K)/Ki(calpain) ratio of ≧30 and + means 10≦Ki(cathepsin K)/Ki(calpain)<30. • The “Sel. cat. L” column indicates the Ki(cathepsin L)/Ki(calpain) ratio. In this connection, ++ means a Ki(cathepsin L)/Ki(calpain) ratio of ≧50 and + means 30≦Ki(cathepsin L)/Ki(calpain)<50. • The “Sel. cat. S” column indicates the Ki(cathepsin S)/Ki(calpain) ratio. In this connection, ++ means a Ki(cathepsin S)/Ki(calpain) ratio of ≧100 and + means 50≦Ki(cathepsin S)/Ki(calpain)<100.

[2] = target: T2, cathepsin L isolated from human liver (Homo sapiens, UniProt P07711); assay: Cathepsin L kinetic fluorescence enzyme inhibition assay; details: selectivity ratio versus calpain I
T2 construct: cathepsin L—isolated from human liver; purchased Calbiochem 219402; host or cells: human liver (tissue isolate)
Summary of the method: (§3)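 Inhibition is measured at room temperature in cysteine-containing MES buffer, pH 6.0, by continuous fluorescence at 460 nm. Cathepsin S (0.5 nM) uses 20 μM Z-Val-Val-Arg-AMC; L (1 nM) and B (0.25 nM) use Z-Phe-Arg-AMC at 2 and 100 μM respectively.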

[3] = target: T3, calpain-I isolated from human erythrocytes (Homo sapiens, UniProt P07384); assay: Calpain I kinetic fluorescence enzyme inhibition assay; details: apparent Ki from IC50 by Cheng-Prussoff; average of 2 to 4 dose-effect plots
T3 construct: calpain-I—isolated from human erythrocytes; purchased Calbiochem 208713; host or cells: human erythrocytes (tissue isolate)
T3 sequence (P07384 1-714): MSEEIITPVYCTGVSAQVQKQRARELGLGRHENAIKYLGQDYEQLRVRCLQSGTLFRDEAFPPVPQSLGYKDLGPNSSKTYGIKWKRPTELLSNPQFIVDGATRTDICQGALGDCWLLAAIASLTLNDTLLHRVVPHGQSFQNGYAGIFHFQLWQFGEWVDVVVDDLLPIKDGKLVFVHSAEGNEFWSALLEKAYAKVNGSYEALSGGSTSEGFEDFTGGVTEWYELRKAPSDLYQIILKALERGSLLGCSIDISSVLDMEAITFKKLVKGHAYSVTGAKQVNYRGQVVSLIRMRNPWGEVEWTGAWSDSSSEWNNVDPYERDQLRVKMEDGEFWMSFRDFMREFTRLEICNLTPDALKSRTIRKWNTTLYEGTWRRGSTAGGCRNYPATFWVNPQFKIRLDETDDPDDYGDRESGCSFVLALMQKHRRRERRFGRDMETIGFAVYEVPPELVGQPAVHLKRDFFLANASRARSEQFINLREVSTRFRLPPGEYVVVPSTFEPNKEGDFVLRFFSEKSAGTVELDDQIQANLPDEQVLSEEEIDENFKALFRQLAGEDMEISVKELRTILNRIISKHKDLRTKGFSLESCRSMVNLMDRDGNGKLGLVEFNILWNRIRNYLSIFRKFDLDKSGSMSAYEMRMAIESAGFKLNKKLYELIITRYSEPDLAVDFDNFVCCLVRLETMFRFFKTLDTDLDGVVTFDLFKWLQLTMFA
T3 sequence (P04632 1-268 partner): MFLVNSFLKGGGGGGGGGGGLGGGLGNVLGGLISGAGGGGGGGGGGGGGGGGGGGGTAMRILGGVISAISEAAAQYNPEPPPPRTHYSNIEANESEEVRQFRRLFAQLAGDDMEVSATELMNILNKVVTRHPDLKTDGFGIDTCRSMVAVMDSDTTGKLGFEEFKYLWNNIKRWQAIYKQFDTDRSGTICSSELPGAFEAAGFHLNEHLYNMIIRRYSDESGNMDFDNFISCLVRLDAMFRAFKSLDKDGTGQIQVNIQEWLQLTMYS

[4] = target: T4, cathepsin B isolated from human liver (Homo sapiens, UniProt P07858); assay: Cathepsin B kinetic fluorescence enzyme inhibition assay; details: selectivity ratio versus calpain I
T4 construct: cathepsin B—isolated from human liver; purchased Calbiochem 219362; host or cells: human liver (tissue isolate)
Description: as §1, §2

[5] = target: T5, recombinant human cathepsin S (Homo sapiens, UniProt P25774); assay: Cathepsin S kinetic fluorescence enzyme inhibition assay; details: selectivity ratio versus calpain I
T5 construct: purchased Calbiochem 219343; host or cells: E. coli
Summary of the method: as §3

T5 sequence (P25774 115-331): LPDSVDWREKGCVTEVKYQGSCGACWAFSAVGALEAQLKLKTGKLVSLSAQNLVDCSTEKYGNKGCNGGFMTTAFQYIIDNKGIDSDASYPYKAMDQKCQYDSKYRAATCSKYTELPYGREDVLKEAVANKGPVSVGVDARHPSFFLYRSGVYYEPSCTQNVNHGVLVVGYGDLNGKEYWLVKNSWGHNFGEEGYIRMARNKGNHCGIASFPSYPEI
T2 sequence (P07711 114-333): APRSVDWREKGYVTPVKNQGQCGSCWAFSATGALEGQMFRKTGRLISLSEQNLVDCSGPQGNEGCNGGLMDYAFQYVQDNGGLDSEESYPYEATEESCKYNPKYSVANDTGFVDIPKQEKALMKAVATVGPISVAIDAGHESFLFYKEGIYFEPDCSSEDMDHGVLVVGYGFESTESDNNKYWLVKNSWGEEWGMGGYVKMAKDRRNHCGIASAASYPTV

NC(=O)C(=O)C(Cc1ccccc1)NC(=O)c1cc(Cl)cnc1-n1ccc(-c2ccccc2)n1 (centres unmarked) [Example 27, N-(3-Amino-1-benzyl-2,3-dioxopropyl)-5-chloro-2-(3-phenyl-1H-pyrazol-1-yl)nicotinamide]
Sel cat. K (Ki(cathepsin K)/Ki(calpain) ratio) [1]: + (10≦Ki(cathepsin K)/Ki(calpain)<30)
Sel cat. L (Ki(cathepsin L)/Ki(calpain) ratio) [2]: + (30≦Ki(cathepsin L)/Ki(calpain)<50)
Ki [3]: ≤ 40 nM
Sel cat. B (Ki(cathepsin B)/Ki(calpain) ratio) [4]: ++ (Ki(cathepsin B)/Ki(calpain) ratio of ≧30)

Cl.NC(=O)C(=O)C(Cc1ccccc1)NC(=O)c1cccnc1-n1ccc(-c2ccc(N3CCOCC3)cc2)n1 (centres unmarked) [Example 29, N-(3-Amino-1-benzyl-2,3-dioxopropyl)-2-[3-(4-morpholin-4-ylphenyl)-1H-pyrazol-1-yl]nicotinamide hydrochloride]
Sel cat. K (Ki(cathepsin K)/Ki(calpain) ratio) [1]: + (10≦Ki(cathepsin K)/Ki(calpain)<30)
Sel cat. S (Ki(cathepsin S)/Ki(calpain) ratio) [5]: ++ (Ki(cathepsin S)/Ki(calpain) ratio of ≧100)
Sel cat. L (Ki(cathepsin L)/Ki(calpain) ratio) [2]: ++ (Ki(cathepsin L)/Ki(calpain) ratio of ≧50)
Ki [3]: ≤ 40 nM

NC(=O)C(=O)C(Cc1ccccc1)NC(=O)c1cc(Cl)cnc1-n1ccc(-c2ccc(N3CCOCC3)cc2)n1 (centres unmarked) [Example 31, N-(3-Amino-1-benzyl-2,3-dioxopropyl)-5-chloro-2-[3-(4-morpholin-4-ylphenyl)-1H-pyrazol-1-yl]nicotinamide]
Sel cat. K (Ki(cathepsin K)/Ki(calpain) ratio) [1]: + (10≦Ki(cathepsin K)/Ki(calpain)<30)
Sel cat. L (Ki(cathepsin L)/Ki(calpain) ratio) [2]: + (30≦Ki(cathepsin L)/Ki(calpain)<50)
Ki [3]: ≤ 40 nM
Sel cat. B (Ki(cathepsin B)/Ki(calpain) ratio) [4]: ++ (Ki(cathepsin B)/Ki(calpain) ratio of ≧30)

NC(=O)C(=O)C(CC1CCCCC1)NC(=O)c1cccnc1-n1ccc(-c2ccccc2)n1 (centres unmarked) [Example 66, N-[3-Amino-1-(cyclohexylmethyl)-2,3-dioxopropyl]-2-(3-phenyl-1H-pyrazol-1-yl)nicotinamide]
Sel cat. K (Ki(cathepsin K)/Ki(calpain) ratio) [1]: + (10≦Ki(cathepsin K)/Ki(calpain)<30)
Sel cat. S (Ki(cathepsin S)/Ki(calpain) ratio) [5]: ++ (Ki(cathepsin S)/Ki(calpain) ratio of ≧100)
Sel cat. L (Ki(cathepsin L)/Ki(calpain) ratio) [2]: + (30≦Ki(cathepsin L)/Ki(calpain)<50)
Ki [3]: ≤ 40 nM

NC(=O)C(=O)C(Cc1ccccc1)NC(=O)c1cccnc1-n1ccc(-c2cccc(N3CCCC3)c2)n1 (centres unmarked) [Example 74, N-(3-Amino-1-benzyl-2,3-dioxopropyl)-2-[3-(3-pyrrolidin-1-ylphenyl)-1H-pyrazol-1-yl]nicotinamide]
Sel cat. K (Ki(cathepsin K)/Ki(calpain) ratio) [1]: ++ (Ki(cathepsin K)/Ki(calpain) ratio of ≧30)
Sel cat. S (Ki(cathepsin S)/Ki(calpain) ratio) [5]: ++ (Ki(cathepsin S)/Ki(calpain) ratio of ≧100)
Ki [3]: ≤ 40 nM
Sel cat. B (Ki(cathepsin B)/Ki(calpain) ratio) [4]: ++ (Ki(cathepsin B)/Ki(calpain) ratio of ≧30)

NC(=O)C(=O)C(Cc1ccccc1)NC(=O)c1cccnc1-n1ccc(-c2ccc3c(c2)CCO3)n1 (centres unmarked) [Example 75, N-(3-Amino-1-benzyl-2,3-dioxopropyl)-2-[3-(2,3-dihydrobenzo[b]furan-5-yl)-1H-pyrazol-1-yl]nicotinamide]
Sel cat. K (Ki(cathepsin K)/Ki(calpain) ratio) [1]: + (10≦Ki(cathepsin K)/Ki(calpain)<30)
Sel cat. S (Ki(cathepsin S)/Ki(calpain) ratio) [5]: ++ (Ki(cathepsin S)/Ki(calpain) ratio of ≧100)
Sel cat. L (Ki(cathepsin L)/Ki(calpain) ratio) [2]: ++ (Ki(cathepsin L)/Ki(calpain) ratio of ≧50)
Ki [3]: 40 to 100 nM

N#Cc1cnc(-n2ccc(-c3ccccc3)n2)c(C(=O)NC(Cc2ccccc2)C(=O)C(N)=O)c1 (centres unmarked) [Example 82, N-(3-Amino-1-benzyl-2,3-dioxopropyl)-5-cyano-2-(3-phenyl-1H-pyrazol-1-yl)nicotinamide]
Sel cat. K (Ki(cathepsin K)/Ki(calpain) ratio) [1]: ++ (Ki(cathepsin K)/Ki(calpain) ratio of ≧30)
Sel cat. L (Ki(cathepsin L)/Ki(calpain) ratio) [2]: ++ (Ki(cathepsin L)/Ki(calpain) ratio of ≧50)
Ki [3]: 40 to 100 nM
Sel cat. B (Ki(cathepsin B)/Ki(calpain) ratio) [4]: ++ (Ki(cathepsin B)/Ki(calpain) ratio of ≧30)

NC(=O)C(=O)C(Cc1ccccc1)NC(=O)c1cccnc1-n1ccc(C2CCCCC2)n1 (centres unmarked) [Example 192, N-[3-Amino-2,3-dioxo-1-(phenylmethyl)propyl]-2-(3-cyclohexyl-1H-pyrazol-1-yl)pyridine-3-carboxamide]
Sel cat. K (Ki(cathepsin K)/Ki(calpain) ratio) [1]: + (10≦Ki(cathepsin K)/Ki(calpain)<30)
Sel cat. S (Ki(cathepsin S)/Ki(calpain) ratio) [5]: ++ (Ki(cathepsin S)/Ki(calpain) ratio of ≧100)
Sel cat. L (Ki(cathepsin L)/Ki(calpain) ratio) [2]: ++ (Ki(cathepsin L)/Ki(calpain) ratio of ≧50)
Ki [3]: 40 to 100 nM
